Data: patent US20060079566A1, “PDK-1/Akt signaling inhibitors” (priority 2003, published 2006)

Tests used:
[1] = test system: NCI-H522; test: NCI DTP screen (SRB), Non-Small Cell Lung Cancer; type: cell-based, human
Experimental: Screening of compounds 70 and 71 against several cancer cell lines The human tumor cell lines of the cancer screening panel are grown in RPMI 1640 medium containing 5% fetal bovine serum and 2 mM L-glutamine. For a typical screening experiment, cells are inoculated into 96 well microtiter plates in 100 μL at plating densities ranging from 5,000 to 40,000 cells/well depending on the doubling time of individual cell lines. After cell inoculation, the microtiter plates are incubated at 37° C., 5% CO2, 95% air and 100% relative humidity for 24 h prior to addition of experimental drugs. […]
Following drug addition, the plates are incubated for an additional 48 h at 37° C., 5% CO2, 95% air, and 100% relative humidity. […] Bound stain is subsequently solubilized with 10 mM trizma base, and the absorbance is read on an automated plate reader at a wavelength of 515 nm. […] Using the seven absorbance measurements [time zero, (Tz), control growth, (C), and test growth in the presence of drug at the five concentration levels (Ti)], the percentage growth is calculated at each of the drug concentrations levels. Percentage growth inhibition is calculated as: [(Ti−Tz)/(C−Tz)]×100 for concentrations for which Ti>/=Tz [(Ti−Tz)/Tz]×100 for concentrations for which Ti<Tz
Three dose response parameters are calculated for each experimental agent. […]

[2] = test system: IGROV1; test: NCI DTP screen (SRB), Ovarian Cancer; type: cell-based; conditions: Homo sapiens
Experimental: (§1) Screening of compounds 70 and 71 against several cancer cell lines The human tumor cell lines of the cancer screening panel are grown in RPMI 1640 medium containing 5% fetal bovine serum and 2 mM L-glutamine. For a typical screening experiment, cells are inoculated into 96 well microtiter plates in 100 μL at plating densities ranging from 5,000 to 40,000 cells/well depending on the doubling time of individual cell lines. After cell inoculation, the microtiter plates are incubated at 37° C., 5% CO2, 95% air and 100% relative humidity for 24 h prior to addition of experimental drugs.
(§2) After 24 h, two plates of each cell line are fixed in situ with TCA, to represent a measurement of the cell population for each cell line at the time of drug addition (Tz). Experimental drugs are solubilized in dimethyl sulfoxide at 400-fold the desired final maximum test concentration and stored frozen prior to use. At the time of drug addition, an aliquot of frozen concentrate is thawed and diluted to twice the desired final maximum test concentration with complete medium containing 50 μg/ml gentamicin. Additional four, 10-fold or ½ log serial dilutions are made to provide a total of five drug concentrations plus control. Aliquots of 100 μl of these different drug dilutions are added to the appropriate microtiter wells already containing 100 μl of medium, resulting in the required final drug concentrations.
(§3) Following drug addition, the plates are incubated for an additional 48 h at 37° C., 5% CO2, 95% air, and 100% relative humidity. For adherent cells, the assay is terminated by the addition of cold TCA. Cells are fixed in situ by the gentle addition of 50 μl of cold 50% (w/v) TCA (final concentration, 10% TCA) and incubated for 60 minutes at 4° C. The supernatant is discarded, and the plates are washed five times with tap water and air dried. Sulforhodamine B (SRB) solution (100 μl) at 0.4% (w/v) in 1% acetic acid is added to each well, and plates are incubated for 10 minutes at room temperature. After staining, unbound dye is removed by washing five times with 1% acetic acid and the plates are air dried. Bound stain is subsequently solubilized with 10 mM trizma base, and the absorbance is read on an automated plate reader at a wavelength of 515 nm. For suspension cells, the methodology is the same except that the assay is terminated by fixing settled cells at the bottom of the wells by gently adding 50 μl of 80% TCA (final concentration, 16% TCA). Using the seven absorbance measurements [time zero, (Tz), control growth, (C), and test growth in the presence of drug at the five concentration levels (Ti)], the percentage growth is calculated at each of the drug concentrations levels. Percentage growth inhibition is calculated as: [(Ti−Tz)/(C−Tz)]×100 for concentrations for which Ti>/=Tz [(Ti−Tz)/Tz]×100 for concentrations for which Ti<Tz
(§4) Three dose response parameters are calculated for each experimental agent. […] The drug concentration resulting in total growth inhibition (TGI) is calculated from Ti=Tz. […] Values are calculated for each of these three parameters if the level of activity is reached; however, if the effect is not reached or is exceeded, the value for that parameter is expressed as greater or less than the maximum or minimum concentration tested.

[3] = test system: OVCAR-3; test: NCI DTP screen (SRB), Ovarian Cancer; type: cell-based
Experimental: as §1, §2, §3, §4

[4] = test system: OVCAR-4; test: NCI DTP screen (SRB), Ovarian Cancer; type: cell-based; conditions: Homo sapiens
Experimental: as §1, §2, §3, §4

[5] = test system: OVCAR-5; test: NCI DTP screen (SRB), Ovarian Cancer; type: cell-based; conditions: Homo sapiens
Experimental: as §1, §2, §3, §4

[6] = test system: SK-OV-3; test: NCI DTP screen (SRB), Ovarian Cancer; type: cell-based; conditions: Homo sapiens
Experimental: as §1, §2, §3, §4

Q: Which results are given for NCC(=O)Nc1ccc(-n2nc(C(F)(F)F)cc2-c2ccc3c(ccc4ccccc43)c2)cc1 [Compound 70, 2-Amino-N-{4-[5-(2-phenanthrenyl)-3-(trifluoromethyl)-1H-pyrazol-1-yl]-phenyl}-acetamide]?
A: GI50 ([1]; Homo sapiens): 1950 nM; Mean Optical Densities ([1]; Log10 Concentration −4.0): 0.486; CC50 ([2]; IGROV-1, read-out: LC50): > 100000 nM; GI50 ([2]; IGROV-1, IGROV1): 1560 nM; GI50 ([3]; Homo sapiens): 1510 nM; Mean Optical Densities ([3]; Log10 Concentration −8.0): 1.879; GI50 ([4]; OVCAR-4): 1780 nM; CC50 ([4]; OVCAR-4, read-out: LC50): 6550 nM; GI50 ([5]; OVCAR-5): 1710 nM; CC50 ([5]; OVCAR-5, read-out: LC50): 6450 nM; GI50 [6]: 1370 nM
